Columns and labels:
Ibrutinib + Vorinostat = compound: C=CC(=O)N1CCC[C@@H](n2nc(-c3ccc(Oc4ccccc4)cc3)c3c(N)ncnc32)C1 [Ibrutinib] + O=C(CCCCCCC(=O)Nc1ccccc1)NO [Vorinostat] (partner 1 µM); assay: relative viability (nuclei count vs DMSO), 5 days (fraction); higher = more cells survive
Method in brief: (§1)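 Relative viability is defined as nuclei in treated wells over nuclei in vehicle wells. Duplicate plates were run and medians reported. Lung cancer cell lines in 1536-well plates were dosed by pin tool one day after seeding, with one drug or with a fixed anchor-drug dose plus five library-drug doses (not always all listed) in √10 steps, and nuclei were counted after 5 days.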

PAC-1 + Crizotinib = compound: C=CCc1cccc(/C=N/NC(=O)CN2CCN(Cc3ccccc3)CC2)c1O [PAC-1] + C[C@@H](Oc1cc(-c2cnn(C3CCNCC3)c2)cnc1N)c1c(Cl)ccc(F)c1Cl [Crizotinib] (partner 1 µM); assay: as above
Method in brief: as §1

Cell Line	relative viability (Ibrutinib + Vorinostat; first compound 0.005 µM)	relative viability (Ibrutinib + Vorinostat; first compound 0.01581 µM)	relative viability (Ibrutinib + Vorinostat; first compound 0.05 µM)	relative viability (Ibrutinib + Vorinostat; first compound 0.1581 µM)	relative viability (Ibrutinib + Vorinostat; first compound 0.5 µM)	relative viability (PAC-1 + Crizotinib; first compound 0.02 µM)	relative viability (PAC-1 + Crizotinib; first compound 0.06325 µM)	relative viability (PAC-1 + Crizotinib; first compound 0.2 µM)	relative viability (PAC-1 + Crizotinib; first compound 2 µM)
NCI-H650	0.36	0.389	0.413	0.578	0.45	0.591	0.653	0.825	0.72
NCI-H661	0.746	0.761	0.752	0.758	0.752	0.927	1.06	–	1.06
NCI-H727	1.11	1.18	1.26	0.808	1.12	0.847	0.841	0.898	0.821
NCI-H838	0.786	0.688	0.762	0.77	0.717	0.776	0.758	0.801	0.92
NCI-H1299	–	–	–	–	–	0.936	0.94	0.937	0.891
NCI-H1355	–	0.626	–	0.688	0.549	1.08	1.08	1.17	1.03
NCI-H1395	0.529	0.79	0.642	0.516	0.798	–	–	–	–
NCI-H1437	0.865	0.919	0.908	0.854	1.02	0.883	0.913	0.85	0.68
NCI-H1563	–	–	–	–	–	0.851	0.801	0.784	0.969
NCI-H1648	0.423	0.441	0.402	0.31	0.343	–	–	–	–
NCI-H1650	0.579	0.589	0.422	0.71	0.535	0.936	1.09	0.898	1.03
NCI-H1651	0.492	0.629	0.524	0.577	0.574	0.815	0.898	0.874	0.755
NCI-H1666	0.939	1.05	1.07	1.12	0.863	0.981	0.897	1.05	1
NCI-H1703	–	–	–	–	–	0.588	0.897	0.851	0.622
NCI-H1734	0.74	0.789	0.781	0.92	0.772	0.698	0.627	0.659	0.766
NCI-H1755	0.739	0.841	0.659	0.824	0.751	0.938	0.867	0.847	0.805
NCI-H1792	–	–	–	–	–	0.988	1.04	1.03	0.909
NCI-H1793	0.405	0.643	0.47	0.518	0.367	–	–	–	–
NCI-H1915	0.453	0.484	0.438	0.678	0.494	0.892	0.899	0.85	0.857
NCI-H1944	0.551	0.47	0.517	0.47	0.467	1.06	1.16	1.02	1.14

Cell Line	relative viability (Ibrutinib + Vorinostat; first compound 0.005 µM)	relative viability (Ibrutinib + Vorinostat; first compound 0.01581 µM)	relative viability (Ibrutinib + Vorinostat; first compound 0.05 µM)	relative viability (Ibrutinib + Vorinostat; first compound 0.1581 µM)	relative viability (Ibrutinib + Vorinostat; first compound 0.5 µM)	relative viability (PAC-1 + Crizotinib; first compound 0.02 µM)	relative viability (PAC-1 + Crizotinib; first compound 0.06325 µM)	relative viability (PAC-1 + Crizotinib; first compound 0.2 µM)	relative viability (PAC-1 + Crizotinib; first compound 2 µM)
NCI-H1975	0.759	0.556	0.649	0.792	0.324	0.919	0.916	0.944	1
NCI-H1993	0.443	0.759	1.13	1.01	0.486	0.811	0.831	0.626	0.743
NCI-H2009	0.728	0.705	0.764	0.759	0.742	1.04	1.05	0.979	0.964
NCI-H2023	0.565	0.6	0.48	0.918	0.49	0.629	0.635	0.534	0.586
NCI-H2085	0.85	0.708	0.74	0.62	0.695	0.742	0.899	0.789	0.947
NCI-H2087	0.97	0.745	0.385	–	0.538	0.995	0.966	0.728	0.68
NCI-H2126	0.454	0.748	0.644	0.725	0.56	1.03	1.02	1.05	1
NCI-H2170	0.703	0.656	0.396	0.831	0.181	1.15	1.25	1.14	1.03
NCI-H2228	0.696	0.486	0.569	0.502	0.648	0.467	0.416	0.498	0.398
NCI-H2342	0.495	0.783	0.754	0.76	0.731	–	–	–	–
NCI-H2347	0.59	0.546	0.566	0.493	0.53	0.82	0.715	0.748	0.826
NCI-H2405	0.913	1.12	–	–	1.03	0.862	0.829	0.818	0.862
NCI-H3122	1.05	0.944	0.874	0.858	1.06	0.251	0.274	0.234	0.294
PC-3 [JPC-3]	0.664	0.774	0.497	0.289	0.399	1.03	1.07	0.944	0.972
PC-14	0.723	0.662	0.611	0.944	0.324	0.946	0.931	0.855	0.945
RERF-LC-KJ	0.631	0.703	0.593	0.668	0.659	0.814	0.868	0.811	0.923
SK-LU-1	0.883	0.715	0.765	0.813	0.766	0.788	0.856	0.93	0.794
SW 900	0.343	0.43	0.488	0.4	0.527	–	–	–	–
SW 1573	–	0.793	0.694	1.06	1.06	0.786	0.658	0.701	0.839
UMC-11	0.39	0.376	0.454	0.345	–	0.62	0.606	0.546	0.666
